Test results: ChEMBL document CHEMBL1909046, “DrugMatrix in vitro pharmacology data”

Assays:
[1] = target: T1, Receptor-type tyrosine-protein phosphatase C (Homo sapiens, UniProt P08575); parameters: species or system Escherichia coli;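 note: inhibition of CD45 enzyme activity measured using DiFMUP as substrate; in other assays of this panel Not Active means under 50% inhibition at 10 µM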
T1 sequence (P08575 whole entry): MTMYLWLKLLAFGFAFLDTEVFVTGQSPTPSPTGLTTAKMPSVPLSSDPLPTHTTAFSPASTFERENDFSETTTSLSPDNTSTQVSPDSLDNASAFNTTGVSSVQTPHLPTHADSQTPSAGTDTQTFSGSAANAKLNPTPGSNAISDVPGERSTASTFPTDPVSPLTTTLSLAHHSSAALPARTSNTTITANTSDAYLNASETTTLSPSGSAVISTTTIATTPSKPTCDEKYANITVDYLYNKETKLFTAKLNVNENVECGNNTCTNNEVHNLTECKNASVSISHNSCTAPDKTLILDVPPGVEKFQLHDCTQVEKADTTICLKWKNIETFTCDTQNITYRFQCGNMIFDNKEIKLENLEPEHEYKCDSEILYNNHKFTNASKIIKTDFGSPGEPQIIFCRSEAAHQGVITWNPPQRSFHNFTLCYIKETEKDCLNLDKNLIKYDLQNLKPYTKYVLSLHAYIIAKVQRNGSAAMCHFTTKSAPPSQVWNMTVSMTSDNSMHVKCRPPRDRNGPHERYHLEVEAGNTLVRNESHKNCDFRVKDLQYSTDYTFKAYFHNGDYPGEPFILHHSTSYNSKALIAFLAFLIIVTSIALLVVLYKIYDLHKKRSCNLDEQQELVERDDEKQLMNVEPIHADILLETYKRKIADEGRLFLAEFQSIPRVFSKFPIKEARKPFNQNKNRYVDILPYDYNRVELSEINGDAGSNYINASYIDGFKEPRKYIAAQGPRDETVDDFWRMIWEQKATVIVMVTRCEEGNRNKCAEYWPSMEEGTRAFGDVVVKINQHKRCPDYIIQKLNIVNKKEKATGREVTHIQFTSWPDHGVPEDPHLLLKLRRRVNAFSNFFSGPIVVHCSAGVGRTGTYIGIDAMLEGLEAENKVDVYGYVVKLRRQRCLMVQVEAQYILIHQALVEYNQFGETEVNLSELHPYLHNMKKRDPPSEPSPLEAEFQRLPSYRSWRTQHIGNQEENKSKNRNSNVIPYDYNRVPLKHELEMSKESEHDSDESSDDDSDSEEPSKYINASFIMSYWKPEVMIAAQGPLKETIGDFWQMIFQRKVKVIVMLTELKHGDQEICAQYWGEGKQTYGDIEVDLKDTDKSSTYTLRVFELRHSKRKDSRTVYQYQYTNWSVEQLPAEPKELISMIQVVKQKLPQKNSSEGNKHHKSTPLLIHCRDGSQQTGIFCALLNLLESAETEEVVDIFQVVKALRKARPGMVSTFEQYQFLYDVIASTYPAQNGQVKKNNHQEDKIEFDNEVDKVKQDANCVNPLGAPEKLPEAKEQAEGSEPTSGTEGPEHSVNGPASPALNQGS

[2] = DRUGMATRIX: Sigma2 radioligand binding (ligand: [3H] Ifenprodil); format: cell membranes, Rattus norvegicus, Wistar, Brain, Membrane; conditions: Not Active = under 50% inhibition at 10 µM
[3] = target: Aldo-keto reductase family 1 member B1 (Rattus norvegicus, UniProt P07943); format: tissue-based, Lens of camera-type eye;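 note: inhibition of aldose reductase enzyme activity, measured with DL-glyceraldehyde as the substrate; in other assays of this panel Not Active means under 50% inhibition at 10 µM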
[4] = DRUGMATRIX: Glutamate, NMDA, Agonism radioligand binding (ligand: [3H] CGP-39653); format: cell membranes, Rattus norvegicus, Wistar, Cerebral cortex, Membrane; conditions: Not Active = under 50% inhibition at 10 µM
[5] = target: T2, C-X-C chemokine receptor type 1 (Homo sapiens, UniProt P25024); note: in other assays of this panel Not Active means under 50% inhibition at 10 µM
T2 sequence (P25024 whole entry): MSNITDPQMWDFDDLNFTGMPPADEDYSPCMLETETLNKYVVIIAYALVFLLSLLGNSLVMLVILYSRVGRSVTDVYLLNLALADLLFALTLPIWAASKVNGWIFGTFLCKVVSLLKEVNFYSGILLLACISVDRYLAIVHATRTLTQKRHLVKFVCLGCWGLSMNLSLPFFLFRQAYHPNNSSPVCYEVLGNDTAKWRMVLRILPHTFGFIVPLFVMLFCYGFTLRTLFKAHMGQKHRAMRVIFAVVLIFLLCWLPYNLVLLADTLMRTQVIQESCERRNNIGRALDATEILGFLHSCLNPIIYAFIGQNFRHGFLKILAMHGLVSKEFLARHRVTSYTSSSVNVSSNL

[6] = target: T3, D(4) dopamine receptor (Homo sapiens, UniProt P21917); test: DRUGMATRIX: Dopamine D4.2 radioligand binding (ligand: [3H] Spiperone); format: cell membranes, CHO-K1, Membrane; conditions: cho-k1; Not Active = under 50% inhibition at 10 µM
T3 sequence (P21917 whole entry): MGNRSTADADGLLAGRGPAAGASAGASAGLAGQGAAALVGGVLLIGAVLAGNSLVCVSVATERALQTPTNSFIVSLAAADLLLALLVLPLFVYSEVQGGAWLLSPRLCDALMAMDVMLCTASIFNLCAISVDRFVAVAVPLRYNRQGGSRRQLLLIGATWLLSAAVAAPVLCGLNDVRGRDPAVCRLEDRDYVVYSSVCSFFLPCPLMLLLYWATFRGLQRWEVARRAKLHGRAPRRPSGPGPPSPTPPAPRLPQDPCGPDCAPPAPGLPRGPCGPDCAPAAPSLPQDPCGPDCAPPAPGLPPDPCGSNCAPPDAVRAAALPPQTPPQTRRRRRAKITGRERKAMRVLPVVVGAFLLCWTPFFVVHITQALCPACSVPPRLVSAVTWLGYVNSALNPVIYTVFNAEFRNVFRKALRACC

[7] = target: Beta-1 adrenergic receptor (Homo sapiens, UniProt P08588); test: DRUGMATRIX: Adrenergic beta1 radioligand binding (ligand: [125I] Cyanopindolol); format: cell membranes, CHO-K1, Membrane; conditions: cho-k1; Not Active = under 50% inhibition at 10 µM
Chain of Beta-1 adrenergic receptor (P08588 whole entry): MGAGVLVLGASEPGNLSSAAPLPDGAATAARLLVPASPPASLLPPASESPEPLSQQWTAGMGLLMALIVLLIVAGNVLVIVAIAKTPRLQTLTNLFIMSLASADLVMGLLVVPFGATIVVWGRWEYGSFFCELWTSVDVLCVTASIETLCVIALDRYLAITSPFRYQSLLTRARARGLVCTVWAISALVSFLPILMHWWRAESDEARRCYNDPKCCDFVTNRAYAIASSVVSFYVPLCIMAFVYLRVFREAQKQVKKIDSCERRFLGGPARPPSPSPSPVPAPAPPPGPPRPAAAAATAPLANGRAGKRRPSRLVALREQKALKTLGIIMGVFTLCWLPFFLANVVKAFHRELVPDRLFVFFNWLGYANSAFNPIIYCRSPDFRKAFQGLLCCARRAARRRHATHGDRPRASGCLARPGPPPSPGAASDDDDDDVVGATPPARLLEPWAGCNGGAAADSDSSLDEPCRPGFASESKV

SMILES	IC50 [1]	IC50 [2]	Ki [2]	IC50 [3]	IC50 [4]	Ki [4]	IC50 [5]	IC50 [6]	IC50 [7]	IC50 ([2]; read-out: IC50)	Ki ([2]; read-out: Ki)
CC(C)NC[C@H](O)COc1cccc2[nH]ccc12	Not Active	Not Active	Not Active	Not Active	Not Active	Not Active	Not Active	Not Active			
c1ccc2c(c1)cc1ccc3cccc4ccc2c1c34	Not Active	Not Active	Not Active	Not Active	Not Active	Not Active	Not Active	Not Active	Not Active		
CCCCCCCCCc1ccc(O)cc1 [4-NONYLPHENOL]	Not Active	Not Active	Not Active	Not Active	Not Active	Not Active	Not Active	Not Active	Not Active		
COc1ccc2c(c1)c(CC(=O)OCC(=O)O)c(C)n2C(=O)c1ccc(Cl)cc1 [ACEMETACIN]	Not Active	Not Active	Not Active	Not Active	Not Active	Not Active	Not Active	Not Active	Not Active		
CCCSc1ccc2nc(NC(=O)OC)[nH]c2c1 [ALBENDAZOLE]	Not Active	Not Active	Not Active	Not Active	Not Active	Not Active	Not Active	Not Active	Not Active		
Cc1[nH]cnc1CN1CCc2c(c3ccccc3n2C)C1=O [ALOSETRON]	Not Active	Not Active	Not Active	Not Active	Not Active	Not Active	Not Active	Not Active	Not Active		
CC1(C)S[C@@H]2[C@H](NC(=O)[C@H](N)c3ccc(O)cc3)C(=O)N2[C@H]1C(=O)O [AMOXICILLIN]	Not Active	Not Active	Not Active	Not Active	Not Active	Not Active	Not Active	Not Active	Not Active		
N=C(N)NCCCCNC(=N)N.O=S(=O)(O)O [ARCAINE SULFATE]	Not Active	Not Active	Not Active	Not Active	Not Active	Not Active	Not Active	Not Active			
CCOC(=O)c1ccc(N)cc1 [BENZOCAINE]	Not Active	Not Active	Not Active	Not Active	Not Active	Not Active	Not Active	Not Active	Not Active		
Cc1ccccc1N1CCN(CCc2nnc3n2CCCC3)CC1 [DAPIPRAZOLE]	Not Active	Not Active	Not Active	Not Active	Not Active	Not Active	Not Active	Not Active	Not Active		
CC(=O)OCC(=O)[C@@]1(OC(C)=O)[C@@H](C)C[C@H]2[C@@H]3C[C@H](F)C4=CC(=O)C=C[C@]4(C)[C@@]3(F)[C@@H](O)C[C@@]21C [DIFLORASONE DIACETATE]	Not Active	Not Active	Not Active	Not Active	Not Active	Not Active	Not Active	Not Active	Not Active		
COc1ccc([C@@H]2Sc3ccccc3N(CCN(C)C)C(=O)[C@@H]2OC(C)=O)cc1 [DILTIAZEM]	Not Active	Not Active	Not Active	Not Active	Not Active	Not Active	Not Active	Not Active	Not Active		
CCc1ccc(C(=O)C(C)CN2CCCCC2)cc1 (stereo unspecified) [EPERISONE]	Not Active			Not Active	Not Active	Not Active	Not Active	Not Active	Not Active	1060 nM	655 nM
C=C1CC[C@H](O)C/C1=C/C=C1\CCC[C@]2(C)[C@@H]([C@H](C)/C=C/[C@H](C)C(C)C)CC[C@@H]12 [ERGOCALCIFEROL]	Not Active	Not Active	Not Active	Not Active	Not Active	Not Active	Not Active	Not Active	Not Active		
CC(C)n1c(/C=C/C(O)CC(O)CC(=O)O)c(-c2ccc(F)cc2)c2ccccc21 (stereo unspecified) [FLUVASTATIN]	Not Active	Not Active	Not Active	Not Active	Not Active	Not Active	Not Active	Not Active	Not Active		
NCC1(CC(=O)O)CCCCC1 [GABAPENTIN]	Not Active	Not Active	Not Active	Not Active	Not Active	Not Active	Not Active	Not Active	Not Active		
CC[N+](CC)(CC)CCOc1cccc(OCC[N+](CC)(CC)CC)c1OCC[N+](CC)(CC)CC.[I-].[I-].[I-] [GALLAMINE TRIETHIODIDE]	Not Active	Not Active	Not Active	Not Active	Not Active	Not Active	Not Active	Not Active	Not Active		
